System: CRAC channels (ICRAC)
Experiment: Whole-cell patch clamp of IP3-induced ICRAC in Jurkat cells
Type: cell-based, human
Settings: 10 μM, 50 μM IP3
Method: The ability of CBGA to inhibit store-operated calcium entry (SOCE) within cells was experimentally interrogated (see FIG. 12). Jurkat cells were perfused with 50 μM IP3 to induce store depletion and activation of CRAC channels (the resulting Ca^2+ inward current is known as ICRAC). ICRAC is a long-lasting inward current at −120 mV membrane potential (black trace) that can be blocked by 10 μM CBGA (gray trace).
Inward CRAC currents were induced at −120 mV (gray trace) and outward currents at +40 mV (black trace, where CRAC currents reverse and are essentially absent). At the +40 mV voltage potential, TRPM7 channels produce monovalent outward currents. Perfusion of 50 μM IP3 activates ICRAC at −120 mV as above and the removal of intracellular ATP slowly activates TRPM7 current at +40 mV. Application of 10 μM CBGA blocks both outward TRPM7 and inward CRAC currents (see FIG. 13, black and gray traces, respectively). Without being bound by theory, CBGA may also block TRPM7's kinase activity, similar to other TRPM7 blockers such as NS8593.

With `CCCCCc1cc(O)c(C/C=C(\C)CCC=C(C)C)c(O)c1C(=O)O` [CBGA, (E)-3-(3,7-dimethylocta-2,6-dien-1-yl)-2,4-dihydroxy-6-pentylbenzoic acid] the “block of inward calcium current ICRAC at −120 mV” value was “completely blocks”.

From patent publication US20230091336A1, “CANNABINOID COMPOSITIONS” (priority 2020, published 2023)
